Results from patent US5043349A, “Substituted pyrrole angiotensin II antagonists” (E. I. Du Pont de Nemours and Company, priority 1990, dated 1991).
Where two headings read alike, the source gives them in different places.

Experiments:
AII receptor = experiment: Angiotensin II receptor binding (displacement of 3H-AII from rat adrenal cortical microsomes); settings: 50% displacement of specifically bound 3H-AII (2 nM), 1 hour, room temperature
Experimental: The hormone angiotensin II (AII) produces numerous biological responses (e.g. vasoconstriction) through stimulation of its receptors on cell membranes. […] The reaction mixture contained rat adrenal cortical microsomes (source of AII receptor) in Tris buffer and 2 nM of ^3 H-AII with or without potential AII antagonist. This mixture was incubated for 1 hour at room temperature and the reaction was subsequently terminated by rapid filtration and rinsing through glass micro-fibre filter. Receptor-bound ^3 H-AII trapped in filter was quantitated by scintillation counting.

Renal Hypertensive Rats = experiment: Antihypertensive effects in renal hypertensive rats (ligation of the left renal artery); assay type: in vivo; settings: Rattus norvegicus
Experimental: This procedure increases blood pressure by increasing renin production with consequent elevation of AII levels. Compounds are administered orally and/or intravenously via a cannula in the jugular vein. Arterial blood pressure is continuously measured directly through a carotid artery cannula and recorded using a pressure transducer and a polygraph. Blood pressure levels after treatment are compared to pretreatment levels to determine the antihypertensive effects of the compounds (See Table 5).

AII = settings: cited from earlier work
arterial pressure = settings: cited from earlier work
[1] = iv, read-out: Antihypertensive Effects in Renal Hypertensive Rats, Intravenous Activity
[2] = po, read-out: Antihypertensive Effects in Renal Hypertensive Rats, Oral Activity

SMILES | IC50 (AII receptor) | minimal effective dose (Renal Hypertensive Rats; [1]) | minimal effective dose (Renal Hypertensive Rats; [2]) | other results
CCCCc1cn(Cc2ccc(-c3ccccc3C(=O)O)cc2)nn1 [Example 1, 4-Butyl-1-[(2'-carboxybiphenyl-4-yl)methyl]-1,2,3-triazole] | 3 µM | > 100 mg/kg | > 100 mg/kg | 
CCCCc1cn(Cc2ccc(-c3ccccc3-c3nn[nH]n3)cc2)nn1 [Example 3, 4-Butyl-1-[2'-(1H-tetrazol-5-yl)-biphenyl-4-yl]methyl-1,2,3-triazoles] | 6 µM | ≤ 10 mg/kg | ≤ 100 mg/kg | 
CCc1nnc(COC)n1Cc1ccc(-c2ccccc2C(=O)O)cc1 [Example 70, 3-Ethyl-5-methoxymethyl-4-[(2'-carboxybiphenyl-4-yl)methyl]-1,2,4-triazole] | 5 µM | ≤ 10 mg/kg | > 100 mg/kg | 
CCCCc1cc(COC)n(Cc2ccc(-c3ccccc3C(=O)O)cc2)n1 [Example 170, 5-Methoxymethyl-3-butyl-1-[(2'-carboxybiphenyl-4-yl)methyl]pyrazole] | 7.3 µM | ≤ 10 mg/kg | > 100 mg/kg | 
CCCCc1cc(COC)nn1Cc1ccc(-c2ccccc2C(=O)O)cc1 [Example 171, 3-Methoxymethyl-5-butyl-1-[(2'-carboxybiphenyl-4-yl)methyl]pyrazole] | 0.29 µM | ≤ 10 mg/kg | ≤ 100 mg/kg | 
CCCc1cc(COC)nn1Cc1ccc(-c2ccccc2C(=O)O)cc1 [Example 173, 3-Methoxymethyl-5-propyl-1-[(2'-carboxybiphenyl-4-yl)methyl]pyrazole] | 6.7 µM | ≤ 10 mg/kg | ≤ 100 mg/kg | 
CCCc1cc(COC)n(Cc2ccc(-c3ccccc3C(=O)O)cc2)n1 [Example 174] | > 1 µM | ≤ 10 mg/kg | > 100 mg/kg | 
CCCc1cc(C(=O)O)nn1Cc1ccc(-c2ccccc2C(=O)O)cc1 [Example 175, 3-Carboxy-5-propyl-1-[(2'-carboxybiphenyl-4-yl)methyl]pyrazole] | 9.5 µM | ≤ 10 mg/kg |  | 
CCCc1cc(CO)nn1Cc1ccc(-c2ccccc2C(=O)O)cc1 [Example 176, 3-Hydroxymethyl-5-propyl-1-[(2'-carboxybiphenyl-4-yl)methyl]pyrazole] | 2.3 µM | > 30 mg/kg | > 30 mg/kg | 
CCCc1cc(CO)n(Cc2ccc(-c3ccccc3C(=O)O)cc2)n1 [Example 177, 5-Hydroxymethyl-3-propyl-1-[(2'-carboxybiphenyl-4-yl)methyl]pyrazole] | > 3 µM | > 30 mg/kg | > 30 mg/kg | 
CCCc1cc(C=O)nn1Cc1ccc(-c2ccccc2C(=O)O)cc1 [Example 178, 3-Formyl-5-propyl-1-[(2'-carboxybiphenyl-4-yl)methyl]pyrazole] | 4.1 µM | ≤ 10 mg/kg | ≤ 100 mg/kg | 
CCCc1cc(C=O)n(Cc2ccc(-c3ccccc3C(=O)O)cc2)n1 [Example 179, 5-Formyl-3-propyl-1-[(2'-carboxybiphenyl-4-yl)methyl]pyrazole] | > 3 µM | > 30 mg/kg | > 30 mg/kg | 
CCCc1ccc(C(=O)OCC)n1Cc1ccc(-c2ccccc2C(=O)O)cc1 [Example 278, Ethyl 5-n-propyl-1-[(2'-carboxybiphenyl-4-yl)methyl]pyrrole-2-carboxylate] | > 3 µM | > 30 mg/kg | > 30 mg/kg | 
CCCc1ccc(C(=O)O)n1Cc1ccc(-c2ccccc2C(=O)O)cc1 [Example 279, 5-n-Propyl-1-[(2'-carboxybiphenyl-4-yl)methyl]-pyrrole-2-carboxylic acid] | > 12 µM | ≤ 10 mg/kg | ≤ 100 mg/kg | 
CNCC(=O)N[C@@H](CCCN=C(N)N)C(=O)N[C@H](C(=O)N[C@@H](Cc1ccc(O)cc1)C(=O)N[C@H](C(=O)N[C@@H](Cc1cnc[nH]1)C(=O)N1CCC[C@H]1C(=O)N[C@@H](C)C(=O)O)C(C)C)C(C)C [Saralasin, [Sar^1, Ala^8] AII] |  |  |  | antagonism of the actions of AII (AII; pithed rats): one of the most potent competitive antagonists of the actions of AII; agonistic actions of its own (AII; rat, in vivo): possessed agonistic actions of its own; effect when the pressure is not sustained by AII (arterial pressure; due to its agonistic character): generally elicits pressor effects; effect on arterial pressure when the (elevated) pressure is dependent on circulating AII (arterial pressure; mammals and man): lower arterial pressure in mammals and man; effect of oral doses (arterial pressure; oral): ineffective; duration of pharmacological effects (arterial pressure; parenteral administration): relatively short-lasting

Second part, led by results:

IC50 (AII receptor) | SMILES | minimal effective dose (Renal Hypertensive Rats; [1]) | minimal effective dose (Renal Hypertensive Rats; [2]) | other results
1 µM | CCCCc1cnnn1Cc1ccc(-c2ccccc2C(=O)O)cc1 [Example 2] | ≤ 10 mg/kg | ≤ 100 mg/kg | 
0.3 µM | CCCCc1cnnn1Cc1ccc(-c2ccccc2-c2nn[nH]n2)cc1 [Example 4] | ≤ 10 mg/kg | ≤ 100 mg/kg | 
0.82 µM | CCCCc1nnc(COC)n1Cc1ccc(-c2ccccc2C(=O)O)cc1 [Example 67, 3-Butyl-5-methoxymethyl-4-[(2'-carboxybiphenyl-4-yl)methyl]-1,2,4-triazole] | ≤ 10 mg/kg | > 100 mg/kg | 
1.8 µM | CCCCc1nncn1Cc1ccc(-c2ccccc2C(=O)O)cc1 [Example 68, 3-Butyl-4-[(2'-carboxybiphenyl-4-yl)methyl]-1,2,4-triazole] | ≤ 10 mg/kg | > 100 mg/kg | 
0.73 µM | CCCc1nnc(COC)n1Cc1ccc(-c2ccccc2C(=O)O)cc1 [Example 69, 3-Methoxymethyl-5-propyl-4-[(2'-carboxybiphenyl-4-yl)methyl]-1,2,4-triazole] | ≤ 10 mg/kg | > 100 mg/kg | 
0.82 µM | CCCCc1nnc(CCCC)n1Cc1ccc(-c2ccccc2C(=O)O)cc1 [Example 71, 3,5-Dibutyl-4-[(2'-carboxybiphenyl-4-yl)methyl]-1,2,4-triazole] | ≤ 10 mg/kg | > 100 mg/kg | 
0.14 µM | CCCc1nnc(COC)n1Cc1ccc(-c2ccccc2-c2nnn[nH]2)cc1 [Example 72, 3-Methoxymethyl-5-propyl-4-[(2'-(1H-tetrazol-5-yl)biphenyl-4-yl)methyl]-1,2,4-triazole] | ≤ 10 mg/kg | ≤ 100 mg/kg | 
0.72 µM | C=CCCc1cc(COC)nn1Cc1ccc(-c2ccccc2C(=O)O)cc1 [Example 172, 3-Methoxymethyl-5-but-3-enyl-1-[(2'-carboxybiphenyl-4-yl)methyl]-pyrazole] | ≤ 10 mg/kg | ≤ 100 mg/kg | 
1.6 µM | CCCc1ccc(C(=O)OCC)n1Cc1ccc(-c2ccccc2-c2nnn[nH]2)cc1 [Example 277, Ethyl 5-n-propyl-1-[2'-(1H-tetrazol-5-yl)biphenyl-4-yl-methyl]pyrrole-2-carboxylate] | ≤ 10 mg/kg | ≤ 100 mg/kg | 
